According to ChEMBL document CHEMBL1201862, “PubChem BioAssay data set” (2004):
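Where inhibition never reached the appropriate level, the endpoint shown equals the highest concentration tested. Otherwise, values were interpolated linearly from a five-concentration, 48-hour dose response in 96-well plates. Abbreviation: GI50, concentration required for 50% inhibition of growth.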 The source made the active and inactive calls. Rule as the data show it: active = GI50 up to about 1.1 µM and inactive = higher. Residues, ends and D or L forms follow the SMILES beside them. *: point of attachment. Cbz = O=C(OCc1ccccc1)*

Tests used:
Experiment in all cases: growth of human tumour cells (NCI), 48 h
BT-549 = tested on: BT-549
HL-60 = tested on: HL-60
HOP-62 = tested on: HOP-62
K562 = tested on: K562
MCF7 = tested on: MCF7
MDA-MB-435 = tested on: MDA-MB-435
Malme-3M = tested on: Malme-3M
NCI-H460 = tested on: NCI-H460
NCI-H522 = tested on: NCI-H522
OVCAR-5 = tested on: OVCAR-5
PC-3 = tested on: PC-3
SF-295 = tested on: SF-295
SK-MEL-5 = tested on: SK-MEL-5
SK-OV-3 = tested on: SK-OV-3
SN12C = tested on: SN12C
SW-620 = tested on: SW-620
UO-31 = tested on: UO-31
OVCAR-4 = tested on: OVCAR-4
SNB-75 = tested on: SNB-75
T47D = tested on: T47D

Measured: GI50

C=C(C1=CC(=O)C(C)(C)O1)[C@@H]1CC=C([C@@H]2CC[C@H]3[C@@]2(C)CC[C@H]2C(C)(C)C(=O)[C@H](OC(=O)CC(C)(O)CC(=O)O)C[C@]32C)[C@H](O)O1 (some centres undefined)
inactive: BT-549 2.06 µM | HL-60 17.7 µM | HOP-62 21.1 µM | K562 25.7 µM | MCF7 9.84 µM | MDA-MB-435 15.1 µM | Malme-3M 13.4 µM | NCI-H460 15.9 µM | NCI-H522 11.4 µM | OVCAR-5 14.5 µM | PC-3 13.2 µM | SF-295 36.4 µM | SK-MEL-5 12.5 µM | SK-OV-3 19.2 µM | SN12C 15.3 µM | SW-620 10.7 µM | UO-31 13.6 µM

C=CCC(CC=O)(C(=O)OCC)C(=O)OCC
inactive: HL-60 86.1 µM | HOP-62 > 100 µM | K562 > 100 µM | MCF7 > 100 µM | MDA-MB-435 > 100 µM | Malme-3M > 100 µM | NCI-H460 > 100 µM | NCI-H522 > 100 µM | OVCAR-4 > 100 µM | OVCAR-5 > 100 µM | PC-3 > 100 µM | SF-295 > 100 µM | SK-MEL-5 > 100 µM | SK-OV-3 > 100 µM | SN12C > 100 µM | SNB-75 > 100 µM | SW-620 > 100 µM | UO-31 76.2 µM

CCOC(=O)CCC(NC(=O)OCc1ccccc1)C(=O)NC(CCC(=O)OCC)C(=O)OCC (centres undefined) (Cbz-Glu(OEt)-Glu(OEt)-OEt; configuration not given here)
inactive: HOP-62 > 100 µM | K562 > 100 µM | MCF7 > 100 µM | MDA-MB-435 > 100 µM | Malme-3M > 100 µM | NCI-H460 > 100 µM | NCI-H522 > 100 µM | OVCAR-4 > 100 µM | OVCAR-5 > 100 µM | PC-3 > 100 µM | SF-295 > 100 µM | SK-MEL-5 > 100 µM | SK-OV-3 > 100 µM | SN12C > 100 µM | SNB-75 > 100 µM | SW-620 > 100 µM | T47D > 100 µM | UO-31 > 100 µM

CS/C(=N\S(=O)(=O)c1ccc(Cl)cc1)NCCN/C(=N/S(=O)(=O)c1ccc(Cl)cc1)SC
inactive: HL-60 > 100 µM | HOP-62 20.6 µM | K562 > 100 µM | MCF7 > 100 µM | MDA-MB-435 > 100 µM | Malme-3M 49.8 µM | NCI-H460 > 100 µM | NCI-H522 2.58 µM | OVCAR-4 2.3 µM | OVCAR-5 > 100 µM | PC-3 8.43 µM | SF-295 61.2 µM | SK-OV-3 23.6 µM | SN12C > 100 µM | SNB-75 24.4 µM | SW-620 > 100 µM | UO-31 > 100 µM

CCOC(=O)c1ccc(Nc2nc3ccccc3nc2-c2cccs2)cc1
inactive: HL-60 24.8 µM | HOP-62 > 100 µM | K562 46.8 µM | MCF7 34 µM | MDA-MB-435 36.9 µM | Malme-3M > 100 µM | NCI-H460 34 µM | NCI-H522 28.1 µM | OVCAR-5 > 100 µM | PC-3 24.8 µM | SF-295 49.4 µM | SK-MEL-5 98.6 µM | SN12C 21.2 µM | SNB-75 16.8 µM | SW-620 > 10 µM | T47D 16.9 µM | UO-31 73.6 µM

Cc1ccc(S(=O)(=O)N/N=C2\CC(C)OC3=C2CCCCCC3)cc1 (centres undefined)
inactive: HL-60 23 µM | HOP-62 18.5 µM | K562 21.5 µM | MCF7 19 µM | MDA-MB-435 18.5 µM | Malme-3M 21.7 µM | NCI-H460 > 100 µM | OVCAR-4 19.8 µM | OVCAR-5 19.5 µM | PC-3 19.2 µM | SF-295 15.8 µM | SK-MEL-5 16.9 µM | SK-OV-3 26.1 µM | SN12C 19.3 µM | SNB-75 24.2 µM | SW-620 20.5 µM | T47D 76.6 µM | UO-31 17.4 µM

COC(=O)C(Cc1ccccc1I)C1=CCC2(CC1)OCCO2 (centres undefined)
inactive: HL-60 18.7 µM | HOP-62 28.9 µM | K562 27.3 µM | MCF7 27.7 µM | MDA-MB-435 20 µM | Malme-3M 22.9 µM | NCI-H460 33.3 µM | NCI-H522 21.4 µM | OVCAR-4 37.2 µM | OVCAR-5 11.3 µM | PC-3 26.9 µM | SF-295 29.2 µM | SK-MEL-5 16.8 µM | SK-OV-3 36.9 µM | SNB-75 21.2 µM | SW-620 44.4 µM | T47D 12.3 µM | UO-31 23.3 µM

Cc1cccc(N(C(=O)Nc2ccc(Cl)c(Cl)c2)C2=NCC(C)S2)c1 (centres undefined)
inactive: HL-60 41.6 µM | HOP-62 > 100 µM | K562 24.8 µM | MCF7 17 µM | Malme-3M 60.1 µM | NCI-H460 41.9 µM | OVCAR-4 41.6 µM | OVCAR-5 > 100 µM | PC-3 43.9 µM | SF-295 78.3 µM | SK-MEL-5 17.5 µM | SK-OV-3 > 100 µM | SN12C 59.3 µM | SNB-75 54.3 µM | SW-620 32.1 µM | T47D 9.84 µM | UO-31 > 100 µM

O=C(c1ccc2ccccc2c1)C1S(=O)(=O)OCCOS1(=O)=O
inactive: BT-549 > 100 µM | HL-60 > 100 µM | HOP-62 > 100 µM | K562 > 100 µM | MCF7 > 100 µM | MDA-MB-435 > 100 µM | Malme-3M > 100 µM | NCI-H460 > 100 µM | OVCAR-4 > 100 µM | OVCAR-5 > 100 µM | PC-3 > 100 µM | SF-295 > 100 µM | SK-MEL-5 > 100 µM | SN12C > 100 µM | UO-31 > 100 µM

CCOC1CCC2C(CCC(/C=C/c3ccc(O)c4ncccc34)N2C)C1 (centres undefined)
inactive: HL-60 3.84 µM | HOP-62 8.71 µM | K562 4.6 µM | MCF7 4.23 µM | Malme-3M 31.6 µM | NCI-H460 7.89 µM | NCI-H522 1.99 µM | OVCAR-5 33.2 µM | PC-3 8.75 µM | SF-295 24 µM | SK-MEL-5 19.7 µM | SN12C 4.78 µM | SW-620 7.59 µM | T47D 9.86 µM | UO-31 26.1 µM

O=S1(=O)CS(=O)(=O)OCCCO1
inactive: HL-60 59 µM | HOP-62 > 100 µM | K562 > 100 µM | MCF7 97.1 µM | MDA-MB-435 > 100 µM | Malme-3M > 100 µM | NCI-H460 27.3 µM | NCI-H522 > 100 µM | OVCAR-4 > 100 µM | OVCAR-5 > 100 µM | PC-3 > 100 µM | SF-295 54.1 µM | SK-MEL-5 > 100 µM | SK-OV-3 > 100 µM | SN12C > 100 µM | SNB-75 51.8 µM | SW-620 > 100 µM | T47D > 100 µM | UO-31 > 100 µM

Fc1ccccc1-c1nn2c(C34CC5CC(CC(C5)C3)C4)nnc2s1
inactive: HOP-62 > 100 µM | K562 > 100 µM | MDA-MB-435 > 100 µM | Malme-3M > 100 µM | NCI-H460 > 100 µM | NCI-H522 > 100 µM | OVCAR-4 > 100 µM | OVCAR-5 > 100 µM | PC-3 > 100 µM | SF-295 > 100 µM | SK-MEL-5 > 100 µM | SK-OV-3 > 100 µM | SN12C > 100 µM | SNB-75 > 100 µM | SW-620 > 100 µM | T47D > 100 µM | UO-31 > 100 µM

CC(CO)(Nc1ccc([N+](=O)[O-])cc1[N+](=O)[O-])C(=O)O (centres undefined)
inactive: BT-549 29.5 µM | HL-60 17.6 µM | HOP-62 49.1 µM | K562 19.1 µM | MCF7 17.5 µM | MDA-MB-435 21.6 µM | Malme-3M 18.7 µM | NCI-H460 15.5 µM | NCI-H522 18.7 µM | OVCAR-5 32.6 µM | PC-3 64.6 µM | SF-295 68.9 µM | SK-MEL-5 20.5 µM | SN12C 20.7 µM | SW-620 16.7 µM | UO-31 15.9 µM

CN1C=COC1N=C1CCCCC1 (centres undefined)
inactive: HL-60 > 100 µM | HOP-62 > 100 µM | K562 > 100 µM | MCF7 > 100 µM | MDA-MB-435 > 100 µM | Malme-3M > 100 µM | NCI-H460 > 100 µM | NCI-H522 > 100 µM | OVCAR-4 > 100 µM | OVCAR-5 > 100 µM | PC-3 > 100 µM | SF-295 > 100 µM | SK-MEL-5 > 100 µM | SK-OV-3 > 100 µM | SN12C > 100 µM | SNB-75 41.4 µM | SW-620 3.3 µM | T47D > 100 µM | UO-31 50.9 µM

Cc1ccccc1C1CC(=O)CC(c2ccccc2C)C12C(=O)NC(=S)NC2=O (centres undefined)
inactive: HL-60 21 µM | HOP-62 27.5 µM | K562 39.5 µM | MCF7 32 µM | MDA-MB-435 20 µM | Malme-3M 25.6 µM | NCI-H460 19.4 µM | OVCAR-4 37.5 µM | OVCAR-5 50.1 µM | PC-3 22.3 µM | SF-295 24.8 µM | SK-MEL-5 17.2 µM | SK-OV-3 37.2 µM | SN12C 26.4 µM | SNB-75 20.8 µM | SW-620 28.5 µM | T47D 42.1 µM | UO-31 17.9 µM

Cc1ccc(NC(=O)CC/C(CC(=O)c2ccc(F)cc2)=N\NC(=O)C(=O)NN)cc1C
inactive: HL-60 41.5 µM | HOP-62 > 100 µM | K562 > 100 µM | Malme-3M > 100 µM | NCI-H460 > 100 µM | NCI-H522 > 100 µM | OVCAR-4 > 100 µM | OVCAR-5 > 100 µM | SF-295 > 100 µM | SK-MEL-5 > 100 µM | SK-OV-3 > 100 µM | SN12C > 100 µM | SNB-75 > 100 µM | SW-620 > 100 µM | UO-31 > 100 µM
